Like-named read-outs stand apart in the source and are kept apart here.
Experiments:
S. aureus JAR060131 = assay type: cell-based, Staphylococcus aureus; conditions: approx. 1 × 10^6 CFU/ml S. aureus JAR, within 2 hrs (Table 2)
Method: Polypeptides of the invention preferably have an in vitro IC99.9 of at most 150 μM after 2 hours at 37° C. against at least one microbial species in the presence of 50% plasma. Said IC99.9 is preferably determined in accordance with a method for determining the antimicrobial activity as described herein in the Examples. Said method described in the Examples for determining antimicrobial activity of microbes not associated with biofilm involves the mixing of 50 microL of a solution of a polypeptide in PBS with addition of human plasma at a final concentration of 50% and 20 microL of bacterial suspension with 5×10^6 CFU per mL of PBS in a well. After incubation of this mixture for 2 hours at 37° C. under shaking conditions, a sample is used for assessment of the bacterial counts. The lowest peptide concentration at which there is 99.9% of bacteria killed, is called the inhibitory concentration (IC) 99.9. Bacterial counts can be determined by manual CFU counting. For determining antibacterial activity for instance 1×10^6 CFU/ml bacteria are used, for determining antifungal activity for instance 1×10^5 cells/ml are used.
(§1) Peptides were incubated with 1×10^6 CFU/ml of a mid-logarithmic culture of S. aureus JAR060131, methicillin resistant S. aureus (MRSA) LUH14616, Staphylococcus epidermidis RP62a, and Pseudomonas aeruginosa PAO1 in PBS without or with addition of pooled human plasma (Sanquin, Amsterdam, the Netherlands) at a final concentration of 50%. Antimicrobial activity is expressed as the 99.9% lethal concentration (LC99.9), i.e., the lowest peptide concentration which killed ≥99.9% of bacteria after 2 hours of incubation at 37° C. under shaking conditions.

[1] = system: LPS (E. coli 054)-induced IL-12p40 production; experiment: LPS neutralization in whole human blood; assay type: cell-based
Description: (§2) The term “anti-inflammatory activity” of a polypeptide as used herein refers to inhibiting, reducing or preventing an inflammatory response in a subject that has been infected by microbes, e.g. bacteria, viruses, fungi, and/or parasites. Anti-inflammatory activity of polypeptides of the invention is achieved by inhibiting, reducing or preventing the release of pro-inflammatory microbial compounds, such as lipoteichoic acid (LTA), peptidoglycan (PG) and/or lipopolysaccharides (LPS). Anti-inflammatory activity can be measured by methods known in the art. Examples of such method are a LPS neutralization assay and a LTA neutralization assay as described in the Examples of this application. In such method, a polypeptide of the invention is mixed with a fixed concentration of LPS or LTA, such as 500 ng/ml LPS or 2 mg/ml LTA, and incubated for 30 min. Thereafter, these mixtures were added to diluted fresh human whole blood and 20 hours thereafter the level of cytokines (e.g. 1L-8 for LTA and 1L-12p40 for LPS) in the blood sample are measured by ELISA.
(§3) Peptides were pre-incubated with 500 ng/ml LPS (E. coli 054) or 2 mg/ml LTA (S. aureus, endotoxin-free) or 1×10^9 CFU/ml of UV-killed S. aureus JAR060131 for 30 min at 37° C. Diluted whole human blood was stimulated with the peptide-LPS/LTA/S. aureus mixtures for 20 hours at 37° C. IL-12p40 and IL-8 levels in supernatants were determined using ELISA.

[2] = system: UV-killed S. aureus JAR060131-induced IL-8 production; experiment: S. aureus neutralization in whole human blood; assay type: cell-based
Method: as §3

[3] = system: S. aureus JAR060131 biofilm formation; assay type: cell-based, Staphylococcus aureus
Method: After solubilization with ethanol, the optical density at 590 nm is determined as a measure of biofilm mass.
Peptides were incubated with 1×10^8 CFU/ml of S. aureus JAR060131 in biofilm-adjusted BM2 in 96-wells polypropylene plates as described in Antimicrob Agents Chemother 2012; 56: 2696-2704. After 24 hours incubation at 37° C., planktonic bacteria were removed by four washes with PBS and biofilms were stained with crystal violet. After solubilization with ethanol, the optical density at 590 nm was determined as a measure of biofilm mass.
To assess the antibiofilm activity of the peptides in the presence of plasma, 96-wells polypropylene plates were coated with plasma by overnight incubation with 20% plasma at 4° C. Wells were washed once with sterile water and inoculated with S. aureus and peptides as described above.

[4] = system: LTA (S. aureus)-induced IL-8 production; experiment: LTA neutralization in whole human blood; assay type: cell-based
Description: as §2, §3

A. niger PagsA-lux = experiment: Effect on fungal growth; assay type: cell-based, Aspergillus niger
Method: The effect of the peptides on fungal growth was assessed using Aspergillus niger. Peptides were incubated with 7.5×10^4 spores/ml of A. niger PagsA-lux in PBS without or with addition of pooled human plasma at a final concentration of 25%. As positive control, spores were treated with the antifungal caspofungin (Cancidas). Absorbance was measured over time and at 16 hours, fungal growth was visualized using light microscopy.

[5] = system: Staphylococcus epidermidis RP62a; assay type: cell-based; conditions: 50% plasma
Method: as §1

Substance: Ac-LKRVWKRVFKLLKRYWRQLKKPVR-NH2 [Peptide P148, J LKRVWKRVFKLLKRYWRQLKKPVR B]
- IC99.9 (S. aureus JAR060131; 50% plasma): 12.8 µM
- IC99.9 (S. aureus JAR060131; PBS): 1.6 µM
- IC90 ([1]; LPS-induced IL-12p40, blood from two donors): 0.25 nM
- IC50 ([1]; diluted whole human blood, 20 hours): 0.03 nM
- fold higher concentration than OP-145 needed to inhibit S. aureus-induced IL-8 production for >50% [2]: 8 fold
- IC50 ([2]; UV-killed S. aureus JAR060131-induced IL-8, blood from one donor): 1.56 µM
- IC50 ([3]; JAR060131 biofilm formation, 24 h): 12.8 µM
- concentration needed to inhibit biofilm formation for 50%, relative to OP-145 and P159 ([3]; plasma-coated wells (FIG. 3B)): two-fold higher concentration
- fold increased LTA-neutralizing ability versus OP-145 [4]: 4 fold
- IC50 ([4]; LTA-induced IL-8, blood from one donor): 0.195 µM
- concentration inhibiting A. niger growth (A. niger PagsA-lux; 25% plasma, light micrographs only, 16 hours (FIG. 2)): 102.4 µM
- fold higher antifungal activity as compared to OP-145 (A. niger PagsA-lux; PBS): 4 fold
- concentration inhibiting A. niger growth (by >99.9%) (A. niger PagsA-lux; PBS, optical density (FIG. 1)): 0.8 µM
- higher bactericidal activity as compared to OP-145 [5]: 43 fold

Reference: patent publication US10130677B2, “Antimicrobial peptide and uses thereof” (priority 2013, dated 2018)
